“Also recorded” adds a separate entry of the source.
How the values were obtained:
[1] = molecular target: unphosphorylated STAT3 monomer (uSTAT3) SH2 domain (Homo sapiens, UniProt P40763); experiment: Fluorescence polarisation assay for the inhibition of STAT3 dimerisation; assay type: binding; conditions: 350 nM uSTAT3, 10 nM FAM-pYLPQTV, 100 μM ligand; average of triplicate
From the text: Fluorescence Polarisation Assay for the Inhibition of STAT3 Dimerisation
The compounds were subjected to an in vitro fluorescent polarisation (FP)-based primary PPI binding screen to assess their ability to inhibit STAT3 dimerisation by interacting with the SH2 domain. In this FP assay, the unphosphorylated STAT3 monomer (uSTAT3) and a surrogate peptide FAM-pYLPQTV were used to form a ‘pseudo-dimer’. The assay is based on the concept that the compounds were expected to displace the surrogate peptide from the uSTAT3 resulting in a fluorescent read out.
Specifically, for the FP assay, a black (CORNING™) 96 well plate was thoroughly washed with distilled water and allowed to dry. A 100 nM FAM-pYLPQTV working solution was prepared from 10 μM FAM-pYLPQTV stock solution (in DMSO) using PBS pH 7.4 Buffer. 10 μl FAM-pYLPQTV was added to 350 nM uSTAT3 protein, the final concentration of protein in each well, in 90 μl PBS buffer pH 7.4. The MP value of the surrogate dimer complex was measured using a fluorescent plate reader (Envision™, Perkin Elmer™, USA), which provided the base MP value. The inhibitor solution was then added to the well and the assay plate was placed on a shaker for 5 minutes. The MP value for each well was then measured again. A shift in fluorescent values was observed due to displacement of the fluorescently-labelled surrogate peptide by the inhibitors, and the average inhibition for each inhibitor could be calculated as described below:
Base MP value (X) for each well=MP value of Protein and Probe (350 nm STAT3+10 nM FAM-pYLPQTV)−MP value of free FAM-pYLPQTV
Inhibitor MP value (Y) for each well=MP value of Protein+Probe+Inhibitor (350 nm uSTAT3+10 nM FAM-pYLPQTV+2 μL Inhibitor)−MP value of free FAM-pYLPQTV with 2 μL DMSO
% inhibition by any ligand/peptide=(X−Y)/X*100
For comparison purpose, the % inhibition produced by 100 μM pYLKTKF was considered to be 100%, and the inhibition produced by different ligands was reported as relative to 100 μM pYLKTKF.
% Inhibition produced by 100 μM pYLKTKF=A
% Inhibition produced by 100 μM Ligand=B
Relative inhibition (%)=B/A*100
The experiment was carried out in triplicate, and average values were taken as the measure of PPI inhibition.

[2] = tested on: A4 (STAT3-null) cancer cell line; experiment: MTT cell viability assay, A4; assay type: cell-based; conditions: exposure (table title)
From the text: (§1) MTT Cell viability assay with both MDA-MB-231 breast (STAT3-dependent) and A4 (STAT3-null) cancer cell lines.
(§2) After observing significant STAT3 dimerisation inhibitory activity in the preliminary FP assay, the target ligand and related fragments were progressed to an MTT cytotoxicity assay to evaluate in a STAT3-dependent tumour cell line (MDA MB 231, breast cancer) and a STAT3 null A4 cell line. It was anticipated that the compounds would show selective toxicity towards the STAT3-dependent MDA MB 231 cell line and would have lost activity in the STAT3 null A4 cell line if the mechanism of action was STAT3-mediated.
(§3) For each cell line, a total of 10,000 cells were seeded for 24 hours before addition of the inhibitors. The cells were grown in normal cell culture conditions at 37° C. under a 5% CO2 humidified atmosphere using an appropriate medium. The cell count was adjusted to 10^5 cells/ml, and 5,000-20,000 cells were added per well depending on the cell line. The cells were then incubated for 24 hours, and 1 μl aliquots of the inhibitors were added to the wells in triplicate. […] Absorbance was quantified by spectrophotometry at A=570 nm (Envision™ Plate Reader, PerkinElmer™, USA). IC50 values were calculated by a dose-response analysis using the Prism GraphPad Prism® software package.

[3] = tested on: STAT3 and STAT3-dependent genes; experiment: RT-PCR expression of STAT3 and STAT3-dependent genes in LPS-stimulated MDA-MB-231 cells; assay type: cell-based, human; conditions: 25 μM, 8 hours, MDA-MB-231 stimulated with 500 μg/mL LPS
Method: Effect of Compounds of the Invention on Expression of STAT3 and STAT3-Dependent Genes.
To probe the STAT3-specific cytotoxicity of the mature ligands, the mRNA expression profile of STAT3 and some STAT3 target genes (i.e., bcl-2, cyclin D1, and fascin) were compared to the reference gene GAPDH using a RT-PCR assay. Initially, the MDA-MB-231 cells were stimulated with 500 μg/mL LPS for 24 hours at 37° C. Following this, the compounds were added at 25 μM to the cells and incubated for another 8 hours at 37° C. Finally, PCR was used to determine changes in the gene expression profiles between stimulated-untreated and stimulated-treated cells.

STAT3 [4] = experiment: STAT3 dimerization inhibition (unpublished results); conditions: applicants' unpublished results
From the text: herein designated RH-06, was identified as being a novel small molecule inhibitor.

STAT3 [5] = conditions: following IL-6 stimulation; cited from earlier work
STAT3 dependent cells = STAT3 dependent cells as compared to STAT3-null cells; cited from earlier work
[6] = tested on: MDA-MB-231 breast (STAT3-dependent) cancer cell line; experiment: MTT cell viability assay, MDA-MB-231; assay type: cell-based, human; conditions: for IC50: Homo sapiens, MDA-MB-231, 48 h; for Selectivity ratio: STAT3-null A4 versus STAT3-dependent MDA-MB-231
From the text: as §1, §2, §3

MDA MB 231 tumours = experiment: Human tumour xenograft study; assay type: in vivo, SCID Hairless Outbred (SHO) mice
Method: In Vivo Evaluation of Compound 6 in a Human Tumour Xenograft Study
Therefore, it was decided to carry out a preliminary in vivo efficacy study in mice to evaluate the ability of the molecule to reduce the tumour volume in MDA MB 231 tumour bearing mice. The in vivo tumour xenograft study was carried out in SCID Hairless Outbred (SHO) mice, using an intravenous (IV) dosing regimen.
(§4) MDA-MB231 cells were mixed with matrigel (Geltrex, Gibco) before implantation into mice. For tumour generation, 5 million cells in a 50% matrigel mixture were inoculated subcutaneously on both flanks of 8 weeks old SCID Hairless Outbred (SHO) mice purchased from Charles River (Germany). […] The injections were repeated on day 3 and day 5. The sizes of the tumours were regularly measured using a caliper every 2 days. The tumour size of the treated mice was compared with that of the control group (7 untreated mice).

[7] = General toxicity and weight of treated xenograft mice; assay type: in vivo
From the text: as §4
The days of dosing are indicated by vertical dashed lines.

[8] = MTT, 48 hours exposure (table title)
[9] = 0.5 mg/Kg IV on days 1, 3 and 5

Chain of unphosphorylated STAT3 monomer (uSTAT3) SH2 domain (P40763 whole entry, the tested form may be a part): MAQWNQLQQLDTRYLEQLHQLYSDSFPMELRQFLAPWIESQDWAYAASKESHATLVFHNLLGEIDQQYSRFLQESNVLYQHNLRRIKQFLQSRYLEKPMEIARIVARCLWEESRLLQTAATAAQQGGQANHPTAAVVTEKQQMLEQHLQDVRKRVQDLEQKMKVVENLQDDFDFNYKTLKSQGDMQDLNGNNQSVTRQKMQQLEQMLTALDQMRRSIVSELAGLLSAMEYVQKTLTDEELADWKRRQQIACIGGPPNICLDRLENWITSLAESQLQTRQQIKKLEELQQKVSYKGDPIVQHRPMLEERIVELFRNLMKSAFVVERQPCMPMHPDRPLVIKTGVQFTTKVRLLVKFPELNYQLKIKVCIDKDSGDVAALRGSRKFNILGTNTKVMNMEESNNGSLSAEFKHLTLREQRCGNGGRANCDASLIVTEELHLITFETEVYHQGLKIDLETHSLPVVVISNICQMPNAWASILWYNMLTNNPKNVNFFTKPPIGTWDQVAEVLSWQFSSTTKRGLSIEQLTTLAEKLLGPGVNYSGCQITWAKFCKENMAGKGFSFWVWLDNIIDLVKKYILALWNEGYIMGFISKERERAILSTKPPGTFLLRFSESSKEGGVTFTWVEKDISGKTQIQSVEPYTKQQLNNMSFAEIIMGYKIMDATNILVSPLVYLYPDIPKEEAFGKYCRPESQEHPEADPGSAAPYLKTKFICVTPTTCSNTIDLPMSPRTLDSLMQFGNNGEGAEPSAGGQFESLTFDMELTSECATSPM

inhibition at 100 µM [1] | IC50 [2] | IC50 [6, 8] | SMILES | Bcl-2 mRNA expression (RT-PCR) [3] | STAT3 mRNA expression (RT-PCR) [3] | cyclin D1 mRNA expression (RT-PCR) [3] | fascin mRNA expression (RT-PCR) [3] | house-keeping gene GAPDH mRNA expression (RT-PCR) [3] | STAT1 mRNA expression (RT-PCR) [3] | Selectivity ratio [6] | other results
> 50% | 65.1 µM | – | COC(=O)c1ccc(N(C)S(=O)(=O)c2cc(C(=O)NCc3ccc(CN4CCCCC4)cc3)sc2-c2ccc(N3CCN(C)CC3)nc2)cc1 [Compound 3, methyl 4-((N-methyl-2-(6-(4-methylpiperazin-1-yl)pyridin-3-yl)-5-((4-(piperidin-1-ylmethyl)benzyl)carbamoyl)thiophene)-3-sulfonamido)benzoate] | down-regulated | notable downregulation | down-regulated | down-regulated | without showing any effect | – | – | –
> 50% | 67.5 µM | – | COC(=O)c1ccc(N(C)S(=O)(=O)c2cc(C(=O)Nc3ccc(OCCN4CCOCC4)cc3)sc2-c2ccc(N3CCCCC3)cc2)cc1 [Compound 10, methyl 4-((N-methyl-5-((4-(2-morpholinoethoxy)phenyl)carbamoyl)-2-(4-(piperidin-1-yl)phenyl)thiophene)-3-sulfonamido)benzoate] | very strong down-regulation | significantly downregulated | marked | marked | did not show any effect | did not show any effect | – | –
24.2% | – | – | Cc1ccc(-c2sc(C(=O)NCc3cccs3)cc2S(=O)(=O)N2CCCC2)cc1 [RH-06] | – | – | – | – | – | – | – | STAT3 dimerization (STAT3 [4]): inhibits STAT3 dimerization; phosphorylation of STAT3 (STAT3 [5]): selectively inhibited phosphorylation of STAT3; cytostatic effect (STAT3 dependent cells): selectively cytostatic
56.2% | 74.7 µM | 1.86 µM | COC(=O)c1ccc(N(C)S(=O)(=O)c2cc(C(=O)Nc3ccc(OCCN4CCOCC4)cc3)sc2-c2ccnc(N3CCN(C)CC3)c2)cc1 [Compound 13, methyl 4-((N-methyl-2-(2-(4-methylpiperazin-1-yl)pyridin-4-yl)-5-((4-(2-morpholinoethoxy)phenyl)carbamoyl)thiophene)-3-sulfonamido)benzoate] | – | – | – | – | – | – | 40.01 | –
35.4% | 65.4 µM | 7.32 µM | COC(=O)c1ccc(N(C)S(=O)(=O)c2cc(C(=O)Nc3ccc(Cc4nc5cc(C)ccc5[nH]4)cc3)sc2Br)cc1 [Compound 34, methyl 4-((2-bromo-N-methyl-5-((4-((5-methyl-1H-benzo[d]imidazol-2-yl)methyl)phenyl)carbamoyl)thiophene)-3-sulfonamido)benzoate] | – | – | – | – | – | – | 8.93 | –
> 50% | 77.4 µM | – | COC(=O)c1ccc(N(C)S(=O)(=O)c2cc(C(=O)NCc3ccc(CN4CCCCC4)cc3)sc2-c2ccc(C(=O)N3CCOCC3)cc2)cc1 [Compound 4, methyl 4-((N-methyl-2-(4-(morpholine-4-carbonyl)phenyl)-5-((4-(piperidin-1-ylmethyl)benzyl)carbamoyl)thiophene)-3-sulfonamido)benzoate] | more pronounced | notable downregulation | relatively low compared to 3 | relatively low compared to 3 | without showing any effect | did not downregulate | – | –
43.7% | 64.3 µM | 4.7 µM | COC(=O)c1ccc(N(C)S(=O)(=O)c2cc(C(=O)NCc3ccc(N4CCN(C)CC4)cc3)sc2-c2ccc(N3CCCCC3)cc2)cc1 [Compound 17, methyl 4-((N-methyl-5-((4-(4-methylpiperazin-1-yl)benzyl)carbamoyl)-2-(4-(piperidin-1-yl)phenyl)thiophene)-3-sulfonamido)benzoate] | – | – | – | – | – | – | 13.68 | –

SMILES | inhibition at 100 µM [1] | IC50 [2] | IC50 [6, 8] | Bcl-2 mRNA expression (RT-PCR) [3] | STAT3 mRNA expression (RT-PCR) [3] | cyclin D1 mRNA expression (RT-PCR) [3] | fascin mRNA expression (RT-PCR) [3] | house-keeping gene GAPDH mRNA expression (RT-PCR) [3] | STAT1 mRNA expression (RT-PCR) [3] | Selectivity ratio [6] | other results
COC(=O)c1ccc(N(C)S(=O)(=O)c2cc(C(=O)NCc3ccc(CN4CCCCC4)cc3)sc2-c2ccnc(N3CCNCC3)c2)cc1 [Compound 6, methyl 4-((N-methyl-2-(2-(piperazin-1-yl)pyridin-4-yl)-5-((4-(piperidin-1-ylmethyl)benzyl)carbamoyl)thiophene)-3-sulfonamido)benzoate] | > 50% | 73.2 µM | – | very weak expression | Almost no expression | Almost no expression | Almost no expression | without showing any effect | without showing any effect | – | IC50 (MDA-MB-231) [6, 8]: sub-micromolar; tumour volume compared to the control group (MDA MB 231 tumours; 0.5 mg/Kg IV (tail vein) on days 1, 3 and 5): significant reduction; also recorded: remained low and near the baseline; tumour volume after dosing was stopped (MDA MB 231 tumours; after dosing stopped on day 5, 0.5 mg/Kg IV): no significant increase in tumour volume; organ changes after sacrifice [7, 9]: no organ changes were observed; signs of toxicity [7, 9]: did not show any signs of toxicity; weight of the treated mice [7, 9]: initially lost some weight post-treatment, but regained the weight after 14 days; survival of treated mice ([7]; SCID Hairless Outbred (SHO), mouse, in vivo): ≥ 21 days
